Here are results for six cell lines from the supplement of paper PMC10307832.

Assay in all cases: relative viability (nuclei count vs DMSO), 5 days (fraction); higher = more cells survive
Compound in test [1]: CN1C=C(C2=CC=CC=C21)/C=C\3/C4=C(C=CC=N4)NC3=O + CC1(C)CCC(c2ccc(Cl)cc2)=C(CN2CCN(c3ccc(C(=O)NS(=O)(=O)c4ccc(N[C@H](CCN5CCOCC5)CSc5ccccc5)c(S(=O)(=O)C(F)(F)F)c4)cc3)CC2)C1 [Navitoclax] (partner 0.5 µM)
In short, it runs like this:
(§1)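 Each reported value is a median over duplicate plates. It expresses relative viability: treated-well nuclei count divided by vehicle-well nuclei count. Lung cancer cell lines in 1536-well plates were dosed by pin tool a day after seeding, alone with one drug or with a fixed anchor-drug dose plus five library-drug doses (not always all listed) in √10 steps, and nuclei were counted after 5 days.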

Compound in test [2]: CN1C=C(C2=CC=CC=C21)/C=C\3/C4=C(C=CC=N4)NC3=O + C[C@]1(O)C[C@@H](c2nc(-c3ccc4ccc(-c5ccccc5)nc4c3)c3c(N)nccn32)C1 [Linsitinib] (partner 1 µM)
The method, boiled down:
as §1

Compound in test [3]: CN1C=C(C2=CC=CC=C21)/C=C\3/C4=C(C=CC=N4)NC3=O + Cc1nc(Nc2ncc(C(=O)Nc3c(C)cccc3Cl)s2)cc(N2CCN(CCO)CC2)n1 [Dasatinib] (partner 0.075 µM)
The method, boiled down:
as §1

Compound in test [4]: CN1C=C(C2=CC=CC=C21)/C=C\3/C4=C(C=CC=N4)NC3=O + N=C(N)NC(=N)NCCc1ccccc1 [Phenformin] (partner 250 µM)
The method, boiled down: as §1

As for NCI-H647, the relative viability in test [1] (first compound 0.02 µM) is 0.767; in test [1] (first compound 0.06325 µM) it was 0.983; in test [1] (first compound 0.6325 µM) it was 0.919; in test [1] (first compound 2 µM), 0.935; in test [2] (first compound 0.02 µM), 0.933; in test [2] (first compound 0.06325 µM) it was 0.922. Also, the relative viability worked out at 0.896 in test [2] (first compound 0.2 µM); 1.2 in test [2] (first compound 0.6325 µM); 1.1 in test [2] (first compound 2 µM); 0.208 in test [3] (first compound 0.02 µM); 0.176 in test [3] (first compound 0.06325 µM); 0.105 in test [3] (first compound 0.2 µM). Also, the relative viability in test [3] (first compound 0.6325 µM) was 0.143; in test [3] (first compound 2 µM), 0.167; in test [4] (first compound 0.02 µM), 0.387; in test [4] (first compound 0.06325 µM), 0.387; in test [4] (first compound 0.2 µM), 0.343; in test [4] (first compound 0.6325 µM) it was 0.479. In test [4] (first compound 2 µM), the relative viability is 0.528.
As to NCI-H1793, the relative viability in test [1] (first compound 0.02 µM) was determined as 0.425; in test [1] (first compound 0.06325 µM), 0.415; in test [1] (first compound 0.2 µM), 0.267; in test [1] (first compound 0.6325 µM), 1.05; in test [1] (first compound 2 µM) it was 0.934; in test [2] (first compound 0.02 µM), 1. Besides, the relative viability was 1.06 in test [2] (first compound 0.06325 µM); 0.748 in test [2] (first compound 0.2 µM); 0.95 in test [2] (first compound 0.6325 µM); 0.884 in test [2] (first compound 2 µM); 0.429 in test [3] (first compound 0.02 µM); 0.341 in test [3] (first compound 0.06325 µM). Besides, the relative viability was determined as 0.337 in test [3] (first compound 0.2 µM); 0.353 in test [3] (first compound 0.6325 µM); 0.381 in test [3] (first compound 2 µM); 0.393 in test [4] (first compound 0.02 µM); 0.41 in test [4] (first compound 0.06325 µM); 0.314 in test [4] (first compound 0.2 µM). Also, the relative viability was determined as 0.403 in test [4] (first compound 0.6325 µM) and 0.368 in test [4] (first compound 2 µM).
Turning to SK-MES-1, the relative viability in test [1] (first compound 0.02 µM) came to 0.902; in test [1] (first compound 0.06325 µM), 1.04; in test [1] (first compound 0.2 µM), 1.26; in test [1] (first compound 0.6325 µM) it was 1.11; in test [1] (first compound 2 µM), 1.15; in test [2] (first compound 0.02 µM), 0.937. Moreover, the relative viability stood at 1.18 in test [2] (first compound 0.06325 µM); 1.09 in test [2] (first compound 0.2 µM); 1.02 in test [2] (first compound 0.6325 µM); 1.06 in test [2] (first compound 2 µM); 0.271 in test [3] (first compound 0.02 µM); 0.322 in test [3] (first compound 0.06325 µM). The relative viability in test [3] (first compound 0.2 µM) amounted to 0.279; in test [3] (first compound 0.6325 µM), 0.305; in test [3] (first compound 2 µM) it was 0.353; in test [4] (first compound 0.02 µM), 0.653; in test [4] (first compound 0.06325 µM), 0.634; in test [4] (first compound 0.2 µM), 0.715. The figures for the relative viability in test [4] (first compound 0.6325 µM) and in test [4] (first compound 2 µM) were 0.672 and 0.624, respectively.
For NCI-H2087, the relative viability in test [1] (first compound 0.02 µM) was determined as 1.01; in test [1] (first compound 0.06325 µM), 0.843; in test [1] (first compound 0.2 µM) it was 1.19; in test [1] (first compound 0.6325 µM), 1.03; in test [1] (first compound 2 µM), 1.13; in test [2] (first compound 0.02 µM), 0.82. In addition, the relative viability in test [2] (first compound 0.06325 µM) was 0.708; in test [2] (first compound 0.2 µM) it was 1.02; in test [2] (first compound 0.6325 µM) it was 0.944; in test [2] (first compound 2 µM), 1.23; in test [3] (first compound 0.02 µM) it was 0.868; in test [3] (first compound 0.06325 µM) it was 0.843. The relative viability amounted to 0.838 in test [3] (first compound 0.2 µM); 0.824 in test [3] (first compound 0.6325 µM); 0.877 in test [3] (first compound 2 µM); 0.488 in test [4] (first compound 0.02 µM); 0.431 in test [4] (first compound 0.06325 µM); 0.387 in test [4] (first compound 0.2 µM). The relative viability was determined as 0.453 in test [4] (first compound 0.6325 µM) and 0.369 in test [4] (first compound 2 µM).
As for BEN, the relative viability in test [1] (first compound 0.02 µM) turned out to be 0.0672; in test [1] (first compound 0.06325 µM) it was 0.0704; in test [1] (first compound 0.2 µM), 0.0656; in test [1] (first compound 0.6325 µM), 0.0636; in test [1] (first compound 2 µM), 0.0694; in test [2] (first compound 0.02 µM), 0.847. The relative viability in test [2] (first compound 0.06325 µM) was 0.996; in test [2] (first compound 0.2 µM), 0.823; in test [2] (first compound 0.6325 µM), 0.875; in test [2] (first compound 2 µM), 1.03; in test [3] (first compound 0.02 µM) it was 0.263; in test [3] (first compound 0.06325 µM) it was 0.275. The relative viability in test [3] (first compound 0.6325 µM) amounted to 0.259; in test [3] (first compound 2 µM), 0.314; in test [4] (first compound 0.02 µM), 0.264; in test [4] (first compound 0.06325 µM), 0.29; in test [4] (first compound 0.6325 µM), 0.255; in test [4] (first compound 2 µM), 0.242.
NCI-H3122: the relative viability in test [1] (first compound 0.02 µM) was determined as 0.907; in test [1] (first compound 0.06325 µM), 1.01; in test [1] (first compound 0.2 µM), 0.989; in test [1] (first compound 0.6325 µM), 1.11; in test [1] (first compound 2 µM) it was 1.06; in test [2] (first compound 0.02 µM), 0.895. Moreover, the relative viability in test [2] (first compound 0.06325 µM) amounted to 0.972; in test [2] (first compound 0.2 µM), 1.01; in test [2] (first compound 0.6325 µM), 1.06; in test [2] (first compound 2 µM), 1.04; in test [3] (first compound 0.02 µM), 0.722; in test [3] (first compound 0.06325 µM), 0.756. For the same cell line, the relative viability in test [3] (first compound 0.2 µM) came out at 0.753; in test [3] (first compound 0.6325 µM), 0.844; in test [3] (first compound 2 µM), 0.835; in test [4] (first compound 0.02 µM), 0.347; in test [4] (first compound 0.06325 µM), 0.333; in test [4] (first compound 0.6325 µM) it was 0.375. The relative viability in test [4] (first compound 2 µM) was determined as 0.355.
